System: patients with postpartum depression (PPD)
Assay: Clinical trial of inhaled 5-MeO-DMT in postpartum depression
Conditions: for BIMF functional domain Adjustment score / BIMF functional domain Infant Care score: maximum possible 12; for BIMF functional domain Mother-Child Interaction score / BIMF functional domain Self Care score / BIMF functional domain Social Support score: maximum possible 18; for BIMF functional domain Management score: maximum possible 36; for BIMF functional domain Psychological Well-being score: maximum possible 60
Procedure: The single-arm, open-label clinical trial will involve 15 adult female patients with clinically diagnosed postpartum depression (PPD).
The second dose (12 mg) will only be administered if: • a. […] The 6 mg dose was safe and well-tolerated according to the investigator, • c. Any psychoactive effects (PsE) of the prior dose have subsided, and • d. Pre-dose vital parameters and forced expiratory volume in one second (FEV1) are in normal range, or if outside of the normal range, are not clinically significant according to the investigator. • 3. Similarly, a third dose (18 mg) will only be administered if: • a. […] The 12 mg dose was safe and well-tolerated according to the investigator, and • c. Any PsE of the prior dose have subsided, and • d. Pre-dose vital parameters and forced expiratory volume in one second (FEV1) are in normal range, or if outside of the normal range, are not clinically significant according to the investigator.
The patients will be assessed for a peak psychedelic experience (based on a patient-scored visual analogue scale, the PE scale), sedation, and other endpoints after dosing. Follow-up visits are planned for Day 1, and Day 7 after the dosing day.
The following criteria must be met by all patients considered for clinical trial participation: • 1. Is female and in the age range between 18 and 45 years (inclusive) at screening. • 2. Has a body mass index (BMI) in the range of 18.5 and 35 kg/m^2 (inclusive) at screening. • 3. Meets the trial criteria for PPD as assessed by a trial psychiatrist or registered psychologist: • a. Diagnosis of Major Depressive Disorder without psychotic features, confirmed by the Mini-International Neuropsychiatric Interview (MINI), with peri-partum onset that began no earlier than gestation and no later than the first 4 weeks postpartum. • b. Has a Montgomery-Åsberg Depression Rating Scale (MADRS) total score of equal to or greater than 28 at screening and pre-dose on Day 0. • 6. […] Patients must have a negative pregnancy test at screening and on the pre-test day (Day −1). • 5. Is willing to delay start of other antidepressant or anxiety medication until after the end of the trial at Day 7 and agrees to keep any psychotherapy unchanged during the trial.
A potential patient who meets any of the following key exclusion criteria will be excluded from participation in this trial: • 1. Has, based on history, psychiatric assessment, and evaluation of the MINI, a current or prior diagnosis of bipolar disorder, a manic or hypomanic episode, a psychotic disorder, Major Depressive Disorder (MDD) or other mood disorder with psychotic features, obsessive compulsive disorder, post-traumatic stress disorder (PTSD), autism spectrum disorder, borderline personality disorder, schizophrenia, delusional disorder, paranoid personality disorder, schizoaffective disorder, clinically significant intellectual disability, or any other psychiatric comorbidity that renders the patient unsuitable for the trial according to the investigator's judgment. • 2. Has one or more first or second degree relatives with a current or previously diagnosed bipolar disorder, psychotic disorder or other mood disorder (including MDD) with psychotic features. • 3. Is in the judgement of a trial psychiatrist or registered psychologist, at significant risk for suicide based on history, psychiatric assessment, and evaluation of suicidal ideation and suicidal behaviour based on the Columbia-Suicide Severity Rating Scale (C-SSRS). • 4. Has taken anti-depressive medication within 14 days or 5 half-lives (whichever is longer) prior to dosing (exception: within the last 5 weeks in the case of fluoxetine). • 5.

[1] = PPD patient n=1, 6 mg then 12 mg
[2] = PPD patient n=1, 6 mg then 12 mg, 2 hr
[3] = PPD patient n=1, 6 mg then 12 mg, Day 1
[4] = PPD patient n=1, 6 mg then 12 mg, Day 7
[5] = PPD patient n=1, 6 mg then 12 mg, discharge
[6] = PPD patient n=1, Day 7 vs Day 0

For `COc1ccc2[nH]cc(CCN(C)C)c2c1` [5-MeO-DMT], the “tolerability of the inhalation procedure” value (PPD patient n=1) was “well tolerated with no inhalation-related adverse events”, the “MADRS remission criteria (MADRS total score equal or less than 10)” value [1] was “fulfilled” and the “MADRS response criteria (at least 50% improvement from baseline)” value [1] was “fulfilled”. For the same compound, the “time to clinical remission after administration” value [1] was no more than 2 h, the “durability of clinical response” value (PPD patient n=1, 6 mg then 12 mg given on one day) was “sustained over the 7-day follow-up period” and the “Total MADRS improvement” value [2] was 24. For the same compound, the “Total MADRS score” value [2] was 5, the “BPRS Tension improvement” value [3] was 5 and the “Total MADRS improvement” value [3] was 29. The “Total MADRS score” value [3] was 0, the “BIMF item 1: I am a good mother” value [4] was 6 and the “BIMF item 2: I feel rested” value [4] was 2. For the same compound, the “BIMF item 3: I am comfortable with the way I've chosen to feed my baby (either bottle or breast, or both)” value [4] was 6, the “BIMF item 4: My baby and I understand each other” value [4] was 5 and the “BIMF item 5: I am able to relax and enjoy time with my baby” value [4] was 6. For the same compound, the “BIMF item 6: There are people in my life that I can trust to care for my baby when I need a break” value [4] was 6, the “BIMF item 8: I am getting enough adult interaction” value [4] was 6 and the “BIMF item 9: I am getting enough encouragement from other people” value [4] was 6. For the same compound, the “BIMF item 10: I trust my own feelings (instincts) when it comes to taking care of my baby” value [4] was 6, the “BIMF item 11: I take a little time each week to do something for myself” value [4] was 6 and the “BIMF item 12: I am taking good care of my baby's physical needs (feedings, changing diapers, doctor's appointments)” value [4] was 6. For the same compound, the “BIMF item 13: I am taking good care of my physical needs (eating, showering, etc)” value [4] was 5, the “BIMF item 14: I make good decisions about my baby's health and well being” value [4] was 6 and the “BIMF item 15: My baby and I are getting into a routine” value [4] was 6. For the same compound, the “BIMF item 16: I worry about how other people judge me (as a mother)” value [4] was 5, the “BIMF item 17: I am able to take care of my baby and my other responsibilities” value [4] was 5 and the “BIMF item 18: Anxiety or worry often interferes with my mothering ability” value [4] was 5. The “BIMF item 20: I am satisfied with the job I am doing as a new mother” value [4] was 5, the “Total MADRS improvement” value [4] was 28 and the “Total MADRS score” value [4] was 1. For the same compound, the “BIMF functional domain Adjustment score” value [4] was 6, the “BIMF functional domain Infant Care score” value [4] was 12 and the “BIMF functional domain Mother-Child Interaction score” value [4] was 17. For the same compound, the “BIMF functional domain Self Care score” value [4] was 13, the “BIMF functional domain Social Support score” value [4] was 18 and the “BIMF functional domain Management score” value [4] was 33. For the same compound, the “BIMF functional domain Psychological Well-being score” value [4] was 53, the “BPRS Blunted Affect score” value [5] was 1 and the “BPRS Conceptual disorganization score” value [5] was 1. For the same compound, the “BPRS Disorientation score” value [5] was 1, the “BPRS Grandiosity score” value [5] was 1 and the “BPRS Hallucinatory behaviour score” value [5] was 1. The “BPRS Hostility score” value [5] was 1, the “BPRS Mannerisms and Posturing score” value [5] was 1 and the “BPRS Motor retardation score” value [5] was 1. For the same compound, the “BPRS Suspiciousness score” value [5] was 1, the “BPRS Tension improvement” value [5] was 5 and the “BPRS Uncooperativeness score” value [5] was 1. The “BPRS Unusual Thought Content score” value [5] was 1, the “BIMF item 1: I am a good mother” value (PPD patient n=1, Day 0) was 6 and the “BIMF item 2: I feel rested” value (PPD patient n=1, Day 0) was 0. For the same compound, the “BIMF item 3: I am comfortable with the way I've chosen to feed my baby (either bottle or breast, or both)” value (PPD patient n=1, Day 0) was 6, the “BIMF item 4: My baby and I understand each other” value (PPD patient n=1, Day 0) was 5 and the “BIMF item 5: I am able to relax and enjoy time with my baby” value (PPD patient n=1, Day 0) was 5. For the same compound, the “BIMF item 6: There are people in my life that I can trust to care for my baby when I need a break” value (PPD patient n=1, Day 0) was 6, the “BIMF item 8: I am getting enough adult interaction” value (PPD patient n=1, Day 0) was 6 and the “BIMF item 9: I am getting enough encouragement from other people” value (PPD patient n=1, Day 0) was 5. The “BIMF item 10: I trust my own feelings (instincts) when it comes to taking care of my baby” value (PPD patient n=1, Day 0) was 5, the “BIMF item 11: I take a little time each week to do something for myself” value (PPD patient n=1, Day 0) was 5 and the “BIMF item 12: I am taking good care of my baby's physical needs (feedings, changing diapers, doctor's appointments)” value (PPD patient n=1, Day 0) was 6. For the same compound, the “BIMF item 13: I am taking good care of my physical needs (eating, showering, etc)” value (PPD patient n=1, Day 0) was 4, the “BIMF item 14: I make good decisions about my baby's health and well being” value (PPD patient n=1, Day 0) was 6 and the “BIMF item 15: My baby and I are getting into a routine” value (PPD patient n=1, Day 0) was 5. For the same compound, the “BIMF item 16: I worry about how other people judge me (as a mother)” value (PPD patient n=1, Day 0) was 3, the “BIMF item 17: I am able to take care of my baby and my other responsibilities” value (PPD patient n=1, Day 0) was 5 and the “BIMF item 18: Anxiety or worry often interferes with my mothering ability” value (PPD patient n=1, Day 0) was 2. For the same compound, the “BIMF item 19: As time goes on, I am getting better at taking care of my baby” value (PPD patient n=1, Day 0) was 0, the “BIMF item 20: I am satisfied with the job I am doing as a new mother” value (PPD patient n=1, Day 0) was 6 and the “reported adverse events (cramping left abdominal pain and headache)” value (PPD patient n=1, Day 0) was “mild, short-lasting and resolved spontaneously”. The “BIMF functional domain Adjustment score” value (PPD patient n=1, Day 0) was 5, the “BIMF functional domain Infant Care score” value (PPD patient n=1, Day 0) was 12 and the “BIMF functional domain Mother-Child Interaction score” value (PPD patient n=1, Day 0) was 15. The “BIMF functional domain Self Care score” value (PPD patient n=1, Day 0) was 9, the “BIMF functional domain Social Support score” value (PPD patient n=1, Day 0) was 17 and the “BIMF functional domain Management score” value (PPD patient n=1, Day 0) was 28. The “BIMF functional domain Psychological Well-being score” value (PPD patient n=1, Day 0) was 44, the “BIMF TOTAL score” value (PPD patient n=1, Day 0, possible total 120) was 92 and the “BIMF total score improvement, percent” value (PPD patient n=1, Day 7) was 14%. The “BIMF TOTAL score, Δ (Day 7)” value [6] was 13, the “BIMF functional domain Adjustment, % Improvement” value [6] was 20.00% and the “BIMF functional domain Infant Care, % Improvement” value [6] was 0.00%. The “BIMF functional domain Management, % Improvement” value [6] was 18%, the “BIMF functional domain Self Care, % Improvement” value [6] was 44% and the “BPRS Anxiety score” value (PPD patient n=1, baseline) was 7. For the same compound, the “BPRS Depressive Mood score” value (PPD patient n=1, baseline) was 6, the “BPRS Emotional Withdrawal score” value (PPD patient n=1, baseline) was 5 and the “BPRS Excitement score” value (PPD patient n=1, baseline) was 2. For the same compound, the “BPRS Guilt Feelings score” value (PPD patient n=1, baseline) was 6, the “BPRS Somatic Concern score” value (PPD patient n=1, baseline) was 6 and the “MADRS Apparent sadness score” value (PPD patient n=1, baseline) was 5. For the same compound, the “MADRS Concentration Difficulties score” value (PPD patient n=1, baseline) was 0, the “MADRS Inability to Feel score” value (PPD patient n=1, baseline) was 3 and the “MADRS Reduced Sleep score” value (PPD patient n=1, baseline) was 5. For the same compound, the “MADRS Reduced appetite score” value (PPD patient n=1, baseline) was 0, the “MADRS Reported sadness score” value (PPD patient n=1, baseline) was 4 and the “MADRS Suicidal Thoughts score” value (PPD patient n=1, baseline) was 0. For the same compound, the “Total MADRS score” value (PPD patient n=1, baseline) was 29, the “changes in vital parameters” value (PPD patient n=1, shortly after administration) was “temporary, clinically non-relevant increase in heart rate and blood pressure” and the “ECG, safety laboratory analyses, CADSS” value (PPD patient n=1, ECG 3 hours, laboratory 7 days, CADSS 3 hours, 1 day and 7 days) was “unremarkable”.

From patent publication US20250241895A1 (GH RESEARCH IRELAND LIMITED, priority 2022, published 2025)
